According to patent publication US7875601B2, “Cancer treatment with epothilones” (Novartis AG, priority 1998, dated 2011):
“And” between values parts separate entries of the source, which are not always exact repeats. Identical values can stand only once. Like-named read-outs stand apart in the source and are kept apart here. Marks after values point to notes of the source that are not given here.

Experiments:
[1] = system: A549 non small cell lung tumors; assay: Antitumor activity on A549 tumors, regimen comparison (Example 7); conditions: for % Regression / % T/C / Delta % Body Weight / Delta Mean Tumor Vol. (mm^3): day 37
Experimental: 3-10 million cells are implanted s.c. into the right axillary (lateral) region of outbred athymic (nu/nu) mice, and are allowed to grow until a tumor volume of approximately 100 mm^3 is established. […] Positive controls are carried out with clinical formulations of TAXOL® diluted 6 fold with D5W and administered i.v. 3×/week.
Antitumor activity is expressed as % T/C (comparing Δ tumor volumes for treatment group to vehicle control group) at the end of the experiment. Regressions are calculated using the formula: −(T/T0−1)×100%, where T is the tumor volume for the treatment group at the end of the experiment, and T0 is the tumor volume at the beginning of the experiment. Statistical significance is evaluated using a one-tailed Student's t-test.

[2] = system: KB-8511 (Epidermoid, MDR); assay: Antiproliferative assay, KB-8511; assay type: cell-based, human
Experimental: (§1) The human epidermal (mouth) carcinoma cell line KB-8511 (a P-gp over-expressing cell line derived from the epidermoid (mouth) KB-31 carcinoma cell line) is obtained from Dr. R. M. Baker, Roswell Park Memorial Institute (Buffalo, N.Y., USA) (for description see Akiyama et al., Somat. Cell. Mol. Genetics 11, 117-126 (1985) and Fojo A., et al., Cancer Res. 45, 3002-3007 (1985)) and is cultured as previously described (Meyer, T., et al., Int. J. Cancer 43 851-856 (1989)).
(§2) Antiproliferative assays are performed as previously described (Int. J. Cancer 43, 851-6 (1989)). Briefly, cells are seeded at 1.5×10^3 cells/well into 96-well microtiter plates and incubated overnight. Compounds are added in serial dilutions on day 1. The plates are then incubated for an additional 2 to 5 days, allowing for at least one cell doubling (cell line dependent), after which the cells are fixed with 3.3% v/v glutaraldehyde, washed with water and stained with 0.05% w/v methylene blue. After washing, the dye is eluted with 3% v/v HCl and the optical density measured at 665 nm with a SpectraMax 340 (Bucherer, Basel, Switzerland). IC50 values are determined by a computerized system (SoftPro, Bucherer, Basel, Switzerland) using the formula (OD test−OD start)/(OD control−OD start)×100. IC50 is defined as the drug concentration which leads to 50% of cells per well compared to control cultures (100%) at the end of incubation period.

[3] = system: human KB-8511 epidermoid carcinoma; assay type: in vivo, female BALB/c nude mice; conditions: for % Body Weight Change / D Body Weight / D Tumor Volume (mm^3): mean ± SEM
Experimental: as §1
Female or male BALB/c nu/nu (nude) mice are kept under sterile conditions (10 to 12 mice per Type III cage) with free access to food and water. Mice weigh between 20 and 25 grams at the time of tumor implantation. Tumors are established by subcutaneous injection of cells (minimum 2×10^6 cells in 100 μl PBS or medium) in carrier mice (4-8 mice per cell line). The resulting tumors are serially passaged for a minimum of three consecutive transplantations prior to start of treatment. Tumor fragments (approx. 25 mg) are implanted s.c. into the left flank of animals with a 13-gauge trocar needle while the mice are exposed to Forene (Abbott, Switzerland) anesthesia.
Tumor growth and body weights are monitored once or twice weekly. All treatments are administered intravenously (i.v.) and are initiated when a mean tumor volume of approximately 100 to 250 mm^3 is attained, depending upon the tumor type. Tumor volumes are determined using the formula […] (see Cancer Chemother. Pharmacol. 24:148-154, [1989]). Treatments with epothilone B vary the dose and the frequency of administration. Comparator agents are administered according to previously determined optimal treatment regimens. In addition to presenting changes in tumor volumes over the course of treatment, antitumor activity is expressed as T/C % (mean increase of tumor volumes of treated animals divided by the mean increase of tumor volumes of control animals multiplied by 100). Tumor. regression (%) represents the smallest mean tumor volume compared to the mean tumor volume at the start of treatment, according to the formula Regression (%)=(1−Vend/Vstart)×100(Vend=final mean tumor volume, Vstart=mean tumor volume at the start of treatment. Any animals in which the tumor has reached a size exceeding approximately 1.5 to 2.5 cm^3 are sacrificed. Details can be found below.

[4] = system: HCT-15 (Colon); assay: Antiproliferative assay, HCT-15; assay type: cell-based, human; conditions: HCT-15, 5 d exposure, mean ± SD, n = 3; read-out: IC50 for growth inhibition
Text: Human colorectal adenocarcinoma cell line HCT-15 (ATCC CCL 225) is from the American Type Culture Collection (Rockville, Md., USA), and the cells are cultivated in vitro as recommended by the supplier. HCT-15 is an epithelial-like cell line. (Cancer Res. 39: 1020-25 [1979]) that is multi-drug resistant by virtue of over-expression of P-glycoprotein (P-gp, gp170, MDR-1;Anticancer Res. 11: 1309-12 [1991]; J. Biol. Chem. 264: 18031-40 [1989]; Int. J. Cancer 1991; 49: 696-703 [1991]) and glutathione-dependent resistance mechanisms (Int. J. Cancer 1991; 49: 688-95 [1991]).
as §2, with “IC50 is defined as the drug concentration which leads to 50% of cells per well compared to control cultures (100%) at the end of incubation period.” left out

SMILES: C/C(=C\c1csc(C)n1)[C@@H]1C[C@@H]2O[C@]2(C)CCC[C@H](C)[C@H](O)[C@@H](C)C(=O)C(C)(C)[C@@H](O)CC(=O)O1 [epothilone B]
- Dead/Total ([1]; 0.5 mg/kg i.v. 5x/week): 0/8
- % Regression ([1]; 0.5 mg/kg i.v. 5x/week): none
- % T/C ([1]; 0.5 mg/kg i.v. 5x/week): 41** %
- Delta % Body Weight ([1]; 0.5 mg/kg i.v. 5x/week): −23.1%
- Delta Mean Tumor Vol. (mm^3) ([1]; 0.5 mg/kg i.v. 5x/week): 178 mm^3
- % T/C ([1]; 0.5 mg/kg i.v. 5x/week, listed as Epothilone B): 41%
- body weight loss ([1]; 0.5 mg/kg, 5×/week): 23%
- Dead/Total ([1]; 1.5 mg/kg i.v. 3x/week): 8/8
- Dead/Total ([1]; 1.5 mg/kg i.v. 3x/week, listed as Epothilone B): all animals have to be euthanatized
- body weight loss ([1]; 4 mg/kg administered 1×/week): 13%
- Dead/Total ([1]; 4 mg/kg i.v. 1x/week): 0/8
- % Regression ([1]; 4 mg/kg i.v. 1x/week): none
- % T/C ([1]; 4 mg/kg i.v. 1x/week): 7** %
- Delta % Body Weight ([1]; 4 mg/kg i.v. 1x/week): −13.2%
- Delta Mean Tumor Vol. (mm^3) ([1]; 4 mg/kg i.v. 1x/week): 32 mm^3
- % T/C ([1]; 4 mg/kg i.v. 1x/week, listed as Epothilone B): 7%
- Dead/Total ([1]; 6 mg/kg i.v. once (day 16)): 0/8
- % Regression ([1]; 6 mg/kg i.v. once (day 16)): none
- % T/C ([1]; 6 mg/kg i.v. once (day 16)): 41** %
- Delta % Body Weight ([1]; 6 mg/kg i.v. once (day 16)): +8.5%
- Delta Mean Tumor Vol. (mm^3) ([1]; 6 mg/kg i.v. once (day 16)): 178 mm^3
- % T/C ([1]; 6 mg/kg i.v. once (day 16), listed as Epothilone B): 41%
- IC50 ([2]; KB-8511, 2 d exposure, mean ± SD, read-out: IC50 for growth inhibition): 0.89 ± 0.47 nM
- relative resistance, IC50 (resistant line)/IC50 (parental line) ([2]; KB-8511 vs parental line): (1.25)
- Regression ([3]; 1 mg/kg, i.v. once per week): none
- Survival (No. alive/total) ([3]; 1 mg/kg, i.v. once per week): 8/8
- T/C ([3]; 1 mg/kg, i.v. once per week, final): 81%
- % Body Weight Change ([3]; 1 mg/kg, i.v. once per week): 12 ± 1%
- D Body Weight ([3]; 1 mg/kg, i.v. once per week): 2.6 ± 0.3 g
- D Tumor Volume (mm^3) ([3]; 1 mg/kg, i.v. once per week): 1620 ± 290 mm^3
- Survival (No. alive/total) ([3]; 2 mg/kg, i.v. once per week): 8/8
- T/C ([3]; 2 mg/kg, i.v. once per week, final): 14%
- % Body Weight Change ([3]; 2 mg/kg, i.v. once per week): 5 ± 2%
- D Body Weight ([3]; 2 mg/kg, i.v. once per week): 1.1 ± 0.4 g
- D Tumor Volume (mm^3) ([3]; 2 mg/kg, i.v. once per week): 289 ± 204 mm^3
- mice with undetectable tumors at the end of the experiment ([3]; 2 mg/kg/week): ⅛
- Survival (No. alive/total) ([3]; 4 mg/kg, i.v. once on day 13): 8/8
- T/C ([3]; 4 mg/kg, i.v. once on day 13, final): 24%
- % Body Weight Change ([3]; 4 mg/kg, i.v. once on day 13): 3 ± 2%
- D Body Weight ([3]; 4 mg/kg, i.v. once on day 13): 0.6 ± 0.6 g
- D Tumor Volume (mm^3) ([3]; 4 mg/kg, i.v. once on day 13): 484 ± 103 mm^3
- Regression ([3]; 4 mg/kg, i.v. once on day 13, transient, day 25 post transplantation): −51%
- Survival (No. alive/total) ([3]; 4 mg/kg, i.v. once per week): 8/8
- T/C ([3]; 4 mg/kg, i.v. once per week (days 13, 21 and 27)): Regression
- % Body Weight Change ([3]; 4 mg/kg, i.v. once per week): −5±7% and −5 ± 3%
- D Body Weight ([3]; 4 mg/kg, i.v. once per week): -1.1 ± 0.4 g
- D Tumor Volume (mm^3) ([3]; 4 mg/kg, i.v. once per week): −107 ± 14 mm^3
- mice with undetectable tumors at the end of the experiment ([3]; 4 mg/kg/week): ⅝
- IC50 [4]: 0.41 ± 0.15 nM
